Results: ChEMBL document CHEMBL4507272 (2021)

Legend:
Settings in all cases: Compound concentration 10.0 uM
[1] = target: T1, GABA-A receptor; anion channel (Rattus norvegicus) (UniProt O09028+P15431+P18506+P18508+P19969+P20236+P23574+P23576+P28471+P28473+P30191+P62813+P63079+P63138+Q91ZM7+Q9ES14)
[2] = target: 5-hydroxytryptamine receptor 7 (Homo sapiens) (UniProt P34969)
[3] = target: Beta-1 adrenergic receptor (Homo sapiens, UniProt P08588)
[4] = target: Alpha-1A adrenergic receptor (Homo sapiens) (UniProt P35348)
[5] = target: Muscarinic acetylcholine receptor M5 (Homo sapiens) (UniProt P08912)
[6] = target: Muscarinic acetylcholine receptor M2 (Homo sapiens) (UniProt P08172)
[7] = target: Delta-type opioid receptor (Homo sapiens) (UniProt P41143)
[8] = target: Sodium-dependent serotonin transporter (Homo sapiens) (UniProt P31645)
[9] = target: T1, GABA-A receptor; anion channel (Rattus norvegicus); remark: listed apart in the source
[10] = target: Muscarinic acetylcholine receptor M3 (Homo sapiens) (UniProt P20309)
[11] = target: Alpha-1D adrenergic receptor (Homo sapiens) (UniProt P25100)
[12] = target: Alpha-2C adrenergic receptor (Homo sapiens) (UniProt P18825)
Alpha-2C adrenergic receptor (Homo sapiens), sequence (P18825 whole entry): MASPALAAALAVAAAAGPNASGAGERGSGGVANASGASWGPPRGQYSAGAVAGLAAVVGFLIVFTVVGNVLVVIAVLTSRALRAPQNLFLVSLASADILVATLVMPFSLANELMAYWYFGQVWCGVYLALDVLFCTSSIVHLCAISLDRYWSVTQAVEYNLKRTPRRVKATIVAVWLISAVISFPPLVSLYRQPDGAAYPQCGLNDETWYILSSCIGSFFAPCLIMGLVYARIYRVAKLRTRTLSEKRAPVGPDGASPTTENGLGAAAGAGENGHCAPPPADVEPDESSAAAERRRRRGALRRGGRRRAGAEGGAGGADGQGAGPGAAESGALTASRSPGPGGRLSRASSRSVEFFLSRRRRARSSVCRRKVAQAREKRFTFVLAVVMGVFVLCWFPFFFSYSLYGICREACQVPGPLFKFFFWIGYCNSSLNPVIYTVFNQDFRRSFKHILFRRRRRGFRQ

[13] = target: D(2) dopamine receptor (Homo sapiens) (UniProt P14416)
D(2) dopamine receptor (Homo sapiens), sequence (P14416 whole entry): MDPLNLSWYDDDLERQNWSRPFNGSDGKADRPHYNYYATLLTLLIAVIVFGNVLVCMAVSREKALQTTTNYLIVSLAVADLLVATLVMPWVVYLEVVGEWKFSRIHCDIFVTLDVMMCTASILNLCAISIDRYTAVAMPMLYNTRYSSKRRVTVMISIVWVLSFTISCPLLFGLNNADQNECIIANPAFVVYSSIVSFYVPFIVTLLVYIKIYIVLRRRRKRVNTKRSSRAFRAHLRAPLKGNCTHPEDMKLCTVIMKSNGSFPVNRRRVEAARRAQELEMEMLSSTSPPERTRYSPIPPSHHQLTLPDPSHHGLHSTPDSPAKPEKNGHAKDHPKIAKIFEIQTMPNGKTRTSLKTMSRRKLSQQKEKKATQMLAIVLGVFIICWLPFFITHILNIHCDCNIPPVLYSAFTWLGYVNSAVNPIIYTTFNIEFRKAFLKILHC

[14] = target: Kappa-type opioid receptor (Homo sapiens) (UniProt P41145)
[15] = target: Muscarinic acetylcholine receptor M4 (Homo sapiens) (UniProt P08173)
[16] = target: 5-hydroxytryptamine receptor 3A (Homo sapiens) (UniProt P46098)
[17] = target: Alpha-2B adrenergic receptor (Homo sapiens) (UniProt P18089)
Alpha-2B adrenergic receptor (Homo sapiens), sequence (P18089 whole entry): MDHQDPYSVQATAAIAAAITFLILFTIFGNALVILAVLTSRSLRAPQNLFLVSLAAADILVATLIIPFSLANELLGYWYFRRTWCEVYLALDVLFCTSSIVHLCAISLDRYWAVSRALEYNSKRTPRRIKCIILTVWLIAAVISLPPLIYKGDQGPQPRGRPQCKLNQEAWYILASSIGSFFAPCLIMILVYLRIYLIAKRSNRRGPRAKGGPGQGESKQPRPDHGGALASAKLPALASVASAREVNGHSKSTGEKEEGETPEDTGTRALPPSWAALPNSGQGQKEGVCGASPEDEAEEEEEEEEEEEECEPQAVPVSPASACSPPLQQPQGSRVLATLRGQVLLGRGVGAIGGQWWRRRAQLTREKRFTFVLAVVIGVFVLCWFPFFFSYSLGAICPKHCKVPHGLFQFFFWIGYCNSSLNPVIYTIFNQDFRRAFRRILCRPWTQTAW

[18] = target: D(1B) dopamine receptor (Homo sapiens) (UniProt P21918)
[19] = target: Beta-2 adrenergic receptor (Homo sapiens) (UniProt P07550)
[20] = target: D(4) dopamine receptor (Homo sapiens) (UniProt P21917)
D(4) dopamine receptor (Homo sapiens), sequence (P21917 whole entry): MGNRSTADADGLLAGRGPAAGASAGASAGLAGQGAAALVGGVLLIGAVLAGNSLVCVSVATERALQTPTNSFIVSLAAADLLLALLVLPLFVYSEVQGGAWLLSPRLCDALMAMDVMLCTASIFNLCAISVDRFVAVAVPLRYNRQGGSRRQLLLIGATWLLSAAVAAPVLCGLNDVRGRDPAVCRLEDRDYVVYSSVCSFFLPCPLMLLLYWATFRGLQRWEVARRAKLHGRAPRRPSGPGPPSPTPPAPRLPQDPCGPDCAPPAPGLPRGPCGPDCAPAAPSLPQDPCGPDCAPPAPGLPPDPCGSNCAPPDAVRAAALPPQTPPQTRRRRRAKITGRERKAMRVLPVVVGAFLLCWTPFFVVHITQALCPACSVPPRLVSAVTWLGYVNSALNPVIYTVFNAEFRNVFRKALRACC

[21] = target: 5-hydroxytryptamine receptor 1A (Homo sapiens) (UniProt P08908)
[22] = target: 5-hydroxytryptamine receptor 2A (Homo sapiens) (UniProt P28223)
5-hydroxytryptamine receptor 2A (Homo sapiens), sequence (P28223 whole entry): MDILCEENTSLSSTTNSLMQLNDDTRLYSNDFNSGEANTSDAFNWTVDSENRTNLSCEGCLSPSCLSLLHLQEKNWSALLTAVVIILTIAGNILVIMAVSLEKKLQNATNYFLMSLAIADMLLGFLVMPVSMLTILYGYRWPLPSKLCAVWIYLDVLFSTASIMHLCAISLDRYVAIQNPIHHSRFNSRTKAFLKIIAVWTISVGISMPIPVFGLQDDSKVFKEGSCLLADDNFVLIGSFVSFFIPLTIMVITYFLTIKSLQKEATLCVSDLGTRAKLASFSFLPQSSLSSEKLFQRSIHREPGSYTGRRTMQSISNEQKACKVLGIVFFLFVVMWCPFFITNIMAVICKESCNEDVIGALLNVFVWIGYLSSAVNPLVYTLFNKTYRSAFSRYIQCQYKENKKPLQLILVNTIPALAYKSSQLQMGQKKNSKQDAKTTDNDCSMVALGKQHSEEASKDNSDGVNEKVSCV

[23] = target: Sigma intracellular receptor 2 (Homo sapiens) (UniProt Q5BJF2)
[24] = target: Alpha-2A adrenergic receptor (Homo sapiens) (UniProt P08913)
[25] = target: 5-hydroxytryptamine receptor 1B (Homo sapiens) (UniProt P28222)
[26] = target: 5-hydroxytryptamine receptor 2B (Homo sapiens) (UniProt P41595)
[27] = target: 5-hydroxytryptamine receptor 6 (Homo sapiens) (UniProt P50406)
5-hydroxytryptamine receptor 6 (Homo sapiens), sequence (P50406 whole entry): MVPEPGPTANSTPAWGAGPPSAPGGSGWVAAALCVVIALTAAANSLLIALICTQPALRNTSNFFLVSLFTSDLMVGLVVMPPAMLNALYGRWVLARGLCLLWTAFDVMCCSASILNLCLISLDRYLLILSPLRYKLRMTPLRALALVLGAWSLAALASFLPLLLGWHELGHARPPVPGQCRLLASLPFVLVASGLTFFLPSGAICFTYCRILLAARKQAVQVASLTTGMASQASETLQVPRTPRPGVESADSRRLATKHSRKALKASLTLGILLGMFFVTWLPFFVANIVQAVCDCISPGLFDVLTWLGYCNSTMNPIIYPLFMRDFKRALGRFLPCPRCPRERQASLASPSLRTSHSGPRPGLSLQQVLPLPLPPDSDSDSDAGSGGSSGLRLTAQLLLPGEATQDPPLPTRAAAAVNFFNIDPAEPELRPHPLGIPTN

[28] = target: Mu-type opioid receptor (Homo sapiens) (UniProt P35372)
[29] = target: 5-hydroxytryptamine receptor 5A (Homo sapiens) (UniProt P47898)
5-hydroxytryptamine receptor 5A (Homo sapiens), sequence (P47898 whole entry): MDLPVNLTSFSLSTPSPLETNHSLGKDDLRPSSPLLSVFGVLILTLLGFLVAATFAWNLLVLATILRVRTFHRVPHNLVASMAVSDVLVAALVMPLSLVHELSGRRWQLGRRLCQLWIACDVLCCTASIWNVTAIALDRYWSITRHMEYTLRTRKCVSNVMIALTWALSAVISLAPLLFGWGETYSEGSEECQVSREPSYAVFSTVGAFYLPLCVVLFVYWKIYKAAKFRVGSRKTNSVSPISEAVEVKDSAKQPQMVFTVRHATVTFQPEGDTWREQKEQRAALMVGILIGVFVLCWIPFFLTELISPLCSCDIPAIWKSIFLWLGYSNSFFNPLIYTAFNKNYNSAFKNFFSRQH

[30] = target: Histamine H1 receptor (Homo sapiens) (UniProt P35367)
[31] = target: Sodium-dependent dopamine transporter (Homo sapiens) (UniProt Q01959)
Sodium-dependent dopamine transporter (Homo sapiens), sequence (Q01959 whole entry): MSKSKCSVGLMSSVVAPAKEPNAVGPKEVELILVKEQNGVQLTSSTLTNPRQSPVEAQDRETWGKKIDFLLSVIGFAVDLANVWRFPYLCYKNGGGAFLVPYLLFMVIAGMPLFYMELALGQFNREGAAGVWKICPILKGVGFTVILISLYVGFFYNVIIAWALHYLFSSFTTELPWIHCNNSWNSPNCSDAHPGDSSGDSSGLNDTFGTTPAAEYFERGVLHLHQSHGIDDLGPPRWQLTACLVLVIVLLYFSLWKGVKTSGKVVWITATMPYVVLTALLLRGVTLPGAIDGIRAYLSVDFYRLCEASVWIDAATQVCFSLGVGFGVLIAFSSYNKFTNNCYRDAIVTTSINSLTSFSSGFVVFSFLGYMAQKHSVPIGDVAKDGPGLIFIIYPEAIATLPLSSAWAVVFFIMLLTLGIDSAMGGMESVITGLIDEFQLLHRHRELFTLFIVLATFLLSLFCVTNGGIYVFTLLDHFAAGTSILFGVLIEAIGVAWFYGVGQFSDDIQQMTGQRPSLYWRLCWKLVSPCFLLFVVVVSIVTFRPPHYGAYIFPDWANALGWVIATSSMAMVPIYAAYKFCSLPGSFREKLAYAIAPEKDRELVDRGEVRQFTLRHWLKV

[32] = target: Beta-3 adrenergic receptor (Homo sapiens) (UniProt P13945)
[33] = target: Histamine H4 receptor (Homo sapiens) (UniProt Q9H3N8)
[34] = target: D(3) dopamine receptor (Homo sapiens) (UniProt P35462)
D(3) dopamine receptor (Homo sapiens), sequence (P35462 whole entry): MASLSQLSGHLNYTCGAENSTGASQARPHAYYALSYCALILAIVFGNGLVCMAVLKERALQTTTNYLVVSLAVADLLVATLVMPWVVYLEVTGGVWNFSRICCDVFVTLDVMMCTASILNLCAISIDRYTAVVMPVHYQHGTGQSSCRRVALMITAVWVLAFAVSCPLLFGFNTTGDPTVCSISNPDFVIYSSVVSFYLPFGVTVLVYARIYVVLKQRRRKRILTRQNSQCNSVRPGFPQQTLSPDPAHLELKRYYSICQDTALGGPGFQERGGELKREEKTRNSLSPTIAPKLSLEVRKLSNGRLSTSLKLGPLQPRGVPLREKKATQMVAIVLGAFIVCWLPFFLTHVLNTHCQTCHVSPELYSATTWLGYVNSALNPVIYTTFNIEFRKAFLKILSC

[35] = target: Histamine H2 receptor (Homo sapiens) (UniProt P25021)
Histamine H2 receptor (Homo sapiens), sequence (P25021 whole entry): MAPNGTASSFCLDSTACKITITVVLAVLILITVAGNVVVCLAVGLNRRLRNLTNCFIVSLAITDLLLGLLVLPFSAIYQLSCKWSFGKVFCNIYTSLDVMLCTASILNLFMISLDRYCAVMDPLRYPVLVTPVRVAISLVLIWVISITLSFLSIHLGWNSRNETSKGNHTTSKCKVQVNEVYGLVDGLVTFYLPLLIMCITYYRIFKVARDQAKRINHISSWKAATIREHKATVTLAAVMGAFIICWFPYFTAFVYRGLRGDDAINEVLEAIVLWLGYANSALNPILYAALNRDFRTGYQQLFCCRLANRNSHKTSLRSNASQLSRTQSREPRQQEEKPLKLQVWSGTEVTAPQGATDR

[36] = target: Sodium-dependent noradrenaline transporter (Homo sapiens) (UniProt P23975)
[37] = target: 5-hydroxytryptamine receptor 2C (Homo sapiens) (UniProt P28335)
[38] = target: Alpha-1B adrenergic receptor (Homo sapiens) (UniProt P35368)

Measured: inhibition

Beta-1 adrenergic receptor, sequence (P08588 whole entry, looked up): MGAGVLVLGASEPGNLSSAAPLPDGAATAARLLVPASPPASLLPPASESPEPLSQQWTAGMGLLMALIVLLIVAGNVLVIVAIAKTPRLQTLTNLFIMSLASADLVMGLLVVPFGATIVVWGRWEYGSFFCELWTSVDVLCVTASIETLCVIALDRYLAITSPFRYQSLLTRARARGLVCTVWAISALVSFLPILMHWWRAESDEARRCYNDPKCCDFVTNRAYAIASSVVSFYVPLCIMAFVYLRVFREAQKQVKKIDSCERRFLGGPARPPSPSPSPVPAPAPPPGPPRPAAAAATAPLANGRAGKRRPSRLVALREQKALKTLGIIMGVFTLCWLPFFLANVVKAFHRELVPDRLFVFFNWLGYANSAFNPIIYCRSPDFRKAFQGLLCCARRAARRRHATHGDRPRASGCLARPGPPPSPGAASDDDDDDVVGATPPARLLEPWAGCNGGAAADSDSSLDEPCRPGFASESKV

CC(=O)C1=C(C)N(c2cccc(C(F)(F)F)c2)C(=O)N[C@H]1c1ccc(C#N)nc1
inactive: [1] 14.7% | [2] 13.9% | [3] 8.09% | [4] -5.26% | [5] 2.19% | [6] -9.21% | [7] 4.95% | [8] 2.85% | [9] -5.84% | [10] 27.3% | [11] 7.7% | [12] 11% | [13] -1.53% | [14] -8.67% | [15] 2.88% | [16] 23.7% | [17] 11.8% | [18] 5.12% | [19] 21.6% | [20] 5.84% | [21] 3.63% | [22] -6.25% | [23] 20.9% | [24] -8.89% | [25] 6.75% | [26] 15.8% | [27] 14.9% | [28] 2.02% | [29] 8.86% | [30] 5.28% | [31] 1.88% | [32] 17.2% | [33] -0.78% | [34] -6.43% | [35] 3.4% | [36] -8.06% | [37] 29% | [38] -8.1%
